Assays:
Format in all cases: biochemical
Conditions in all cases: method of U.S. Ser. No. 11/473,347 or similar
Fms = Fms (Homo sapiens, UniProt P07333); assay: Fms kinase activity assay
Text: (§1) Assays for the activity of kinases, including, but not limited to, Fms, Kit, B-Raf, B-Raf V600E, B-Raf V600E/T5291 and c-Raf-1 are known in the art, for example as described in US Patent Publication Number US20070032519 and U.S. patent application Ser. No. 11/473,347 (see also, PCT publication WO2007002433), the disclosures of which are hereby incorporated by reference with respect to such assays.
(§2) Compounds P-0001 was screened by at least one of the methods described in U.S. patent application Ser. No. 11/473,347, or by similar methods.

Kit = Kit (Homo sapiens, UniProt P10721); assay: Kit kinase activity assay
Text: as §1, §2

Kdr = Kdr (Homo sapiens, UniProt P35968); assay: Kdr kinase activity assay
Text: as §1, §2

Btk = Btk (Homo sapiens, UniProt Q06187); assay: Btk kinase activity assay
Text: as §1, §2

Measured: IC50

Fms, sequence (P07333 20-972): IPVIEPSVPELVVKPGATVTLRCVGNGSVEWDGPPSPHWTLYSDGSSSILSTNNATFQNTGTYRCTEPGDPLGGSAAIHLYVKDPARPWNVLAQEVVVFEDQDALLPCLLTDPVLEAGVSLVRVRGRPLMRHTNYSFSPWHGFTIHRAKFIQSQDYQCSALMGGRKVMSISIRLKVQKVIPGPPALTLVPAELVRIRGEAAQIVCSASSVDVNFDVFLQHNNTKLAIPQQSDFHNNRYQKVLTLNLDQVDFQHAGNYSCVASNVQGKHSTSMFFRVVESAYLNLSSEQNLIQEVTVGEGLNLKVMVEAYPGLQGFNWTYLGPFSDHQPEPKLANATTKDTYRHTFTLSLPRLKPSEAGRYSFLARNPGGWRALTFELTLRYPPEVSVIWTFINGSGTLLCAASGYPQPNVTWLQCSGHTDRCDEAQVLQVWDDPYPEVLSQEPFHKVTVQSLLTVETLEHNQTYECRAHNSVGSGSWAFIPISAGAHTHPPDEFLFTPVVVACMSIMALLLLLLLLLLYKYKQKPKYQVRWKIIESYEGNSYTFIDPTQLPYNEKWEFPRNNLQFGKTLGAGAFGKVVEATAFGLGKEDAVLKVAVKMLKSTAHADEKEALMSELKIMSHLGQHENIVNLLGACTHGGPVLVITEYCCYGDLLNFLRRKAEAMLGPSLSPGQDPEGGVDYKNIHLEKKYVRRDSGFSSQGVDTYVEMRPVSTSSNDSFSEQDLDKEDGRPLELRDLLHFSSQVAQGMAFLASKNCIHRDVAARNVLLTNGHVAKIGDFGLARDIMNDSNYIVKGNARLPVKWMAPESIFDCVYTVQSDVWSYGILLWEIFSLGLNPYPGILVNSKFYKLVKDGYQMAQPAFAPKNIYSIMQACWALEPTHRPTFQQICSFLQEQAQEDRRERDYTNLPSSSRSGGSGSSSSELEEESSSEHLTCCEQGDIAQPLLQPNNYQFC
Kit, sequence (P10721 26-976): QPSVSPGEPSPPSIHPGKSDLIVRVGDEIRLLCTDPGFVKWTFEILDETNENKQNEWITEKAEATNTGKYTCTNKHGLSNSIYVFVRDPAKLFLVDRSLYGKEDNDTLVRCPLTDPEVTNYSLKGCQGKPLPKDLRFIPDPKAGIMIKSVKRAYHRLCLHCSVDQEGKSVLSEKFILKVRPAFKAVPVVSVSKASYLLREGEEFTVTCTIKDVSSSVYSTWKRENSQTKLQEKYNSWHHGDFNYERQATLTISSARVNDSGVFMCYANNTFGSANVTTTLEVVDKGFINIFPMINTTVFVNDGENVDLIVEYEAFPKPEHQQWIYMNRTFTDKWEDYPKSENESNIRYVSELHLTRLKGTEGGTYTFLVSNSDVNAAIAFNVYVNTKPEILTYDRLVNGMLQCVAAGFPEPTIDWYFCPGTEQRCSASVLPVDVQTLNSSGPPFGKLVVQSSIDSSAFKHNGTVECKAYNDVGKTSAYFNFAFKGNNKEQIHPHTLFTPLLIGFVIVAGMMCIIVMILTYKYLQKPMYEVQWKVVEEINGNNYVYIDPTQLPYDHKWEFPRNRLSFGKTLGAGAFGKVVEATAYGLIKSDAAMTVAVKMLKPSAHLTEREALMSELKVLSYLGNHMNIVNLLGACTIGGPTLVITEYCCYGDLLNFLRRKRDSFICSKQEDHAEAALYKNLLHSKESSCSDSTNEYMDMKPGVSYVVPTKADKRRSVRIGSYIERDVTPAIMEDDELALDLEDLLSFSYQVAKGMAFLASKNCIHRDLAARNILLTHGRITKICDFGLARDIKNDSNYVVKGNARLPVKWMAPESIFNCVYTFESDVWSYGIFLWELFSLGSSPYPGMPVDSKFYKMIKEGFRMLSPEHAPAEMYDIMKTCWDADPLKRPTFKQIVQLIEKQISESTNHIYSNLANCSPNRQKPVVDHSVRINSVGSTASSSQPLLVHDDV
Kdr, sequence (P35968 20-1356): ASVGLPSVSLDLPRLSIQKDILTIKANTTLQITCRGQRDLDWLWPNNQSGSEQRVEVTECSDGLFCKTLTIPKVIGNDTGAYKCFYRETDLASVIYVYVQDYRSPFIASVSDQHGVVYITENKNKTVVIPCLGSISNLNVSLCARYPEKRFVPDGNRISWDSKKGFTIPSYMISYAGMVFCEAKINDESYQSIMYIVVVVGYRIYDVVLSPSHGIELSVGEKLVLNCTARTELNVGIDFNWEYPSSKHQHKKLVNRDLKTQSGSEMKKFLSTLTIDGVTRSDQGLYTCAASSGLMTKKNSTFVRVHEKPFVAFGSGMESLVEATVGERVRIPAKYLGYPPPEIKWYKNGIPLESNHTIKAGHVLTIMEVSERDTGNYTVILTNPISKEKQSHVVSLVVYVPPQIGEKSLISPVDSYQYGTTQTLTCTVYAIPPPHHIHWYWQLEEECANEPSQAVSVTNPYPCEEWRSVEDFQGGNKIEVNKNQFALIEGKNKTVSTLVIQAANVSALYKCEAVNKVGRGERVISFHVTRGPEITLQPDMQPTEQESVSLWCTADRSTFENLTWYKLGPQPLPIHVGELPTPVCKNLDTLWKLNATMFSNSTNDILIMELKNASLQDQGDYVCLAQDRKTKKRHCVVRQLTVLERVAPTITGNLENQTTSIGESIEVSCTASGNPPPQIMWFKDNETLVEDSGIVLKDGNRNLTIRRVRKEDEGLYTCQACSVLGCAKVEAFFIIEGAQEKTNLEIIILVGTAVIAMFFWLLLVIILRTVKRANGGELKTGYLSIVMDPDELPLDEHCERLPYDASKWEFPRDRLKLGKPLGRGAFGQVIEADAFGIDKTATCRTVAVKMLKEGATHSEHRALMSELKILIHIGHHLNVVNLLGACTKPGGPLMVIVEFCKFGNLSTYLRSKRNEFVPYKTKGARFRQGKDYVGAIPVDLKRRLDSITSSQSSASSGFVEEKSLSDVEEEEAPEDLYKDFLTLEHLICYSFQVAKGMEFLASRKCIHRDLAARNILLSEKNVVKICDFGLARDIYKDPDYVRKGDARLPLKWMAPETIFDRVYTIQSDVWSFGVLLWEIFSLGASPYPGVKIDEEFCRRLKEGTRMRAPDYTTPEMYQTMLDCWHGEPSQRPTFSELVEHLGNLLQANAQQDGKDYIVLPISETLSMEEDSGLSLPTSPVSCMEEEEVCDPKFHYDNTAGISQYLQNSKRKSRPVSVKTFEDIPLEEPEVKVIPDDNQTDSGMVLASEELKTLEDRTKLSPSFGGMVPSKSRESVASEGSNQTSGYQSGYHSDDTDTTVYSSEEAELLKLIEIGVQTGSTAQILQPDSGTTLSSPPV
Btk, sequence (Q06187 whole entry): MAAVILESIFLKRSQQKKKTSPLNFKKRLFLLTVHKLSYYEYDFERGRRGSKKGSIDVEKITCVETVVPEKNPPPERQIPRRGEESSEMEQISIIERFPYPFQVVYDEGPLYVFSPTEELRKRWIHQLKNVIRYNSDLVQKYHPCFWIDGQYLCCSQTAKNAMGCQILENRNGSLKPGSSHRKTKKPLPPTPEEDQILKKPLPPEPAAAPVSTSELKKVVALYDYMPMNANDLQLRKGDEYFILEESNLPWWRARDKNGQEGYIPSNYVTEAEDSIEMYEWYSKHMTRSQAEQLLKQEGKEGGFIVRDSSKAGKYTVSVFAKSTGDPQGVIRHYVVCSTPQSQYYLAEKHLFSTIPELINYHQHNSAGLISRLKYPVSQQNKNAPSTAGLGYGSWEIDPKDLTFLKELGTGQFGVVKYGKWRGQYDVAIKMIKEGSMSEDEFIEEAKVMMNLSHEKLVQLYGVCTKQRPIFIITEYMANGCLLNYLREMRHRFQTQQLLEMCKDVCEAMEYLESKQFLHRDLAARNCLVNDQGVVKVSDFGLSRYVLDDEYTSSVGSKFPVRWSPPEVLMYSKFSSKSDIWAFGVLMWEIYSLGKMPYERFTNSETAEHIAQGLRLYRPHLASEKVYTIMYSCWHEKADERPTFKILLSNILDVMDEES

COc1ccc(CNc2ccc(Cc3c[nH]c4nccnc34)cn2)cn1 [Compound P-0001, (6-methoxy-pyridin-3-ylmethyl)-[5-(5H-pyrrolo[2,3-b]pyrazin-7-ylmethyl)-pyridin-2-yl]-amine]
< 10 µM: all assays above
